Key:
in vitro = conditions: human, HEK293 cells
HeLa = test: cells; conditions: Homo sapiens, 24 h

| EC50 at 24 h (in vitro) [µM] | EC50 (HeLa) [µM] | SMILES |
| --- | --- | --- |
| 15.9 | 6.19 | O=C(CCC(=O)NCCc1ccc(Cl)c(Cl)c1)NCCCCn1cnc2c(Br)c(Br)c(Br)c(Br)c21 |
|  | 2.1 | O=C(O)c1ccc2c(c1)nc(Nc1cccc(Cl)c1)c1ccncc12 [SILMITASERTIB] |
